From PMC11947619, “Molecular mechanism of Mad2 conformational conversion promoted by the Mad2‐interaction motif of Cdc20” (Protein Science : A Publication of the Protein Society, 2025) come the findings set out here.

Residues, ends and D or L forms follow the SMILES beside them.

The target of this experiment is T1, O‐Mad2^WT (Homo sapiens, UniProt Q13257).
T1 construct: MD simulations on the full‐length O‐Mad2:C‐Mad2:Mad1^MIM complex; His6-DoubleStrep-TEV (N); made in house
The experiment in a line: NMR: conversion of monomeric wild-type O-Mad2^WT. Type of experiment: biochemical. Particulars: O-Mad2^WT 300 μM, two-fold molar excess peptide, HSQC, 25°C. The method, then:
FIGURE 6 O‐Mad2 retains its dynamic and structural properties in the O‐Mad2:C‐Mad2 dimer. (a, c) HSQC spectra of 300 μM wild‐type O‐Mad2^WT (a, light blue) and O‐Mad2^WT:(C‐Mad2^WT:Mad1^MIM) (c, blue). The schematics show the conformation of Mad2 as indicated by the tryptophan side‐chain resonances and their oligomeric states as determined by SEC‐MALS (insets). The SEC peaks are labeled with their molecular masses (kDa), where the theoretical molecular masses for monomeric and dimeric Mad2 are 23.5 and 47.0 kDa, respectively. For the dimeric samples, only one of the monomers was isotopically labeled and observable by NMR. Distinct chemical shift differences were also observed for Gly50 in O‐Mad2 and C‐Mad2, and its resonances are marked in the spectra. Cdc20^MIM‐123‐152 was added at two‐fold molar excess to O‐Mad2^WT (a), and O‐Mad2^WT:(C‐Mad2^WT:Mad1^MIM) (c). (b, d) This generated C‐Mad2^WT‐Cdc20^MIM (b, brown), and (C‐Mad2^WT:Cdc20^MIM):(C‐Mad2^WT:Mad1^MIM) (d, yellow), respectively. Their spectra are overlaid with that of C‐Mad2^L13A/R133A:Cdc20^MIM (red) for comparison. (e) Cα RMSF were determined from MD simulations at 300 K for monomeric O‐Mad2 (blue line) and O‐Mad2 in a O‐Mad2:C‐Mad2:Mad1^MIM dimer (brown dotted line). […]
For wild‐type Mad2, the protein was expressed as O‐Mad2^WT using the conditions described above. […]

T1 sequence (Q13257 whole entry): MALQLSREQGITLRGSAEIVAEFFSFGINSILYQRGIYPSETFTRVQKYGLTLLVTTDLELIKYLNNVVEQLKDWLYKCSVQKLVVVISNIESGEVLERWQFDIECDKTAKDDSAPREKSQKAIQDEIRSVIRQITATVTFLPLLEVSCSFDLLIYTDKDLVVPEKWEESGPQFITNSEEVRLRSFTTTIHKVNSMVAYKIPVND

As to `CC[C@H](C)[C@H](NC(=O)[C@H](CCCCN)NC(=O)[C@H](C)NC(=O)[C@H](CCC(=O)O)NC(=O)[C@H](CCC(=O)O)NC(=O)[C@@H](NC(=O)[C@H](CC(=O)O)NC(=O)[C@@H](N)Cc1ccccc1)C(C)C)C(=O)N[C@@H](CC(C)C)C(=O)N[C@@H](CCCNC(=N)N)C(=O)N[C@@H](CC(C)C)C(=O)N[C@@H](CO)C(=O)NCC(=O)N[C@@H](CCCCN)C(=O)N1CCC[C@H]1C(=O)N[C@@H](CCC(N)=O)C(=O)N[C@@H](CC(N)=O)C(=O)N[C@@H](C)C(=O)N1CCC[C@H]1C(=O)N[C@@H](CCC(=O)O)C(=O)NCC(=O)N[C@@H](Cc1ccc(O)cc1)C(=O)N[C@@H](CCC(N)=O)C(=O)N[C@@H](CC(N)=O)C(=O)N[C@@H](CCCNC(=N)N)C(=O)N[C@@H](CC(C)C)C(=O)N[C@@H](CCCCN)C(=O)N[C@H](C(=O)N[C@@H](CC(C)C)C(=O)N[C@@H](Cc1ccc(O)cc1)C(=O)O)C(C)C` [Cdc20^MIM‐123‐152] (H-FDVEEAKILRLSGKPQNAPEGYQNRLKVLY-OH; N-terminus and C-terminus assumed), the “conversion of O-Mad2^WT, in words” value is “converted to C‐Mad2 upon binding Cdc20^MIM”.
